Measured values published in patent US8846914B2, “Compositions to effect neuronal growth” (Neuralstem, Inc., priority 2003, dated 2014).

Assays:
[1] = test system: human hippocampal stem cells differentiated for a period of 3-4 weeks; experiment: 2° Assay Cell#/Apop (secondary neuroprotection/apoptosis assay); type: cell-based
Description: Other potential AD therapeutics progressing in clinical trials, target neurodegeneration in the hopes of reducing the neuronal loss and cognitive decline. Apoptotic death involving caspase pathways and DNA fragmentation has been measured in in vitro and animal models of AD and in Alzheimer's diseased brain tissue. The extent of apoptosis leading to neuronal loss is of continual debate with most agreeing it has some effect, but that other neuronal death pathways definitely play a role (see Behl, 2000; Broe et al., 2001, Roth, 2001). […]
A number of neurogenic agents inhibit neuronal loss, caspase-3 activity and/or nuclear fragmentation compared to staurosporine vehicle control. These NSI small molecule agents are all effective at in vitro neurogenesis as determined by methods described. […] Instrumentation such as a Molecular Devices fluorescent plate reader or a […] Array Scan II instrument and the like may be used to measure the degeneration and apoptosis.
Another assay used to determine the ability of a compound to provide neuroprotection is an apoptosis assay. Apoptosis is measured using the activity of an early matter of the programmed cell death pathway, caspase-3. […] Caspase-3 activity is expressed as μM of cleaved substrate per hour. […]

[2] = test system: human hippocampal stem cells; experiment: Neuronal identification of mitotic cells (BrdU / TuJ1 co-staining); type: cell-based; conditions: BrdU during last forty-eight hours of two-week treatment; FIG. 13
Description: FIG. 13 is a bar graph illustrating an example of neuronal identification of the mitotic cells in response to the compound treatment. Mitotic cells were labeled with BrdU during the last forty-eight hours of the two-week treatment with the test compounds. BrdU alone and BrdU together with TuJ1 as co-stained cells were quantified. Results from NSI-106 and LIF treatment are shown as an example. […] The bars represent the mean±SD from each of six wells.
In FIG. 13, mitotic cells are labeled with BrdU during the last forty-eight hours of a two-week treatment with the test compounds. BrdU alone and BrdU together with TuJ1 as co-stained cells are quantified.
As described in pending U.S. patent application Ser. No. 10/728,652, leukemia inhibitory factor (LIF), a cytokine growth factor, was selected from among several known neurotrophic factors as a positive control against which tested compounds can be compared. […] This effect is both consistent with the neural stem cell system in which the cells respond appropriately to the positive control by enhanced differentiation and/or mitosis, and achieves the objective of the assay method in which such cellular responses can be measured reproducibly and quantifiably.
Results from NSI-106 and the positive control, LIF treatment are shown as an example. […] The bars represent the mean±SD from each of six wells.

O=C(NCc1nc2ccccn2c1NCC1CCCO1)Oc1ccccc1 (stereo not drawn) [NSI-182]
2° Assay Apop [1]: 100 ± 27 | 2° Assay Cell# [1]: 78 ± 34/

CCCCNc1c(C2CCN(C(=O)CN(CC(C)C)S(C)(=O)=O)CC2)nc2cnccn12 [NSI-106]
BrdU and TuJ1 co-stained mitotic cells [2]: produces mostly co-stained cells
